Reference: ChEMBL document CHEMBL3112428, “Biological evaluation of diazene derivatives as anti-tubercular compounds” (Eur J Med Chem, 2014)
Values after ≈ are worked out from the molar mass of the structure shown.

Tested on: Mycobacterium tuberculosis variant bovis
Assay: Antituberculosis activity against Mycobacterium bovis AN5 expressing lux gene assessed as inhibition of bacterial replication after 6 days by luminometry analysis
Format: functional, organism-based
Details: AN5, 144 h

| Structure (SMILES) | IC50 [µg/mL] |
| --- | --- |
| O=C(/N=N/c1ccc([N+](=O)[O-])cc1)Nc1ccccc1 | 2.21 (≈ 8.18 µM) |
| O=C(/N=N/c1ccc(C(F)(F)F)cc1)Nc1ccccc1 | 1.05 (≈ 3.58 µM) |
| CCOC(=O)/N=N/C(=O)Nc1ccc(C)cc1 | 2.78 (≈ 11.8 µM) |
